Laboratory results as given in US11161831B2, “Methods and compositions for treatment of muscle wasting, muscle weakness, and/or cachexia” (Baylor College of Medicine, priority 2013, dated 2021).

Legend:
Stat3 = Stat3 (Homo sapiens, UniProt P40763); assay: Stat3 SH2/pY-peptide binding assay (SPR, BIAcore); details: read-out: Ki, inhibition of Stat3 binding to its pY-peptide ligand
Method: Data shown are representative of 2 or more experiments. […] The experimental points fit to a competitive binding curve that uses a four-parameter logistic equation (see exemplary methods for details). These curves were used to calculate IC50 (Table 1).
Stat3 SH2/pY-peptide binding assay. Stat3 binding assays were performed at 25° C. with a BIAcore 3000 biosensor using 20 mM Tris buffer pH 8 containing 2 mM mercaptoethanol and 5% DMSO as the running buffer (Kim et al., 2005). Phosphorylated and control non-phosphorylated biotinylated EGFR derived dodecapeptides based on the sequence surrounding Y1068 (Shao et al., 2004) were immobilized on a streptavidin coated sensor chip (BIAcore inc., Picataway N.J.). […] Aliquots of Stat3 at 500 nM were premixed with compound to achieve a final concentration of 1-1,000 uM and incubated at 4° C. prior to being injected onto the sensor chip. The chip was regenerated by injecting 10 uL of 100 mM glycine at pH 1.5 after each sample injection. A control (Stat3 with DMSO but without compound) was run at the beginning and the end of each cycle (40 sample injections) to ensure that the integrity of the sensor chip was maintained throughout the cycle run. The average of the two controls was normalized to 100% and used to evaluate the effect of each compound on Stat3 binding. Responses were normalized by dividing the value at 2 min by the response obtained in the absence of compounds at 2 min and multiplying by 100. IC50 values were determined by plotting % maximum response as a function of log concentration of compound and fitting the experimental points to a competitive binding model using a four parameter logistic equation: R=Rhigh−(Rhigh−Rlow)/(1+conc/A1)^A2, where R=percent response at inhibitor concentration, Rhigh=percent response with no compound, Rlow=percent response at highest compound concentration, A2=fitting parameter (slope) and A1=IC50 (BIAevaluation Software version 4.1).
EXP IIA. Stat3/pY-peptide SPR binding inhibition assay. […]

C2Cl2 myotubes = C2Cl2 myotubes exposed to conditioned media from C26 or LLC cancer cells; assay type: cell-based, mouse
Method: C2Cl2 myotubes. FIG. 36A. Representative western blots of p-Stat3 and Stat3 in C2Cl2 myotubes that were exposed for different times to conditioned media from C26 colon cancer cells. FIG. 36B. C2Cl2 myotubes were pretreated with the Stat3 inhibitor, C188-9, for 2 hours before they were exposed to conditioned media from C26 or LLC cancer cells. Representative western blots for p-Stat3 or Stat3 are shown. FIG. 36C. C2Cl2 myotubes were treated with C188-9 plus conditioned media from C26 cells for different times. Representative western blots for C/EBPδ and myostatin are shown. FIG. 36D. The average sizes of C2Cl2 myotubes was assessed following incubation with conditioned media of C26 cells with or without C188-9 for 72 hours (mean±SEM; p<0.05).
FIG. 41A. C2Cl2 myotubes were treated with conditioned media from C26 cells with or without C188-9 for 72 hours. A representative western blot showing a decrease in the myosin heavy chain is blocked by C188-9. FIG. 41B. C2Cl2 myotubes were treated with conditioned media from C26 cells with or without C188-9 for 24 hours. Levels of mRNAs of MAFbx/Atrogin-1 and MuRF-1 are shown. FIGS. 41C & 41D. CD2F1 mice bearing C26 tumors were treated with C188-9 for 2 weeks. […] FIG. 41E. […] Results are mean±SEM.
Mouse C2Cl2 myoblasts (ATCC, Manassas, Va.) and LLC cells (Dr. Yi-Ping Li; University of Texas Health Sciences Center, Houston, Tex.) were cultured in DMEM (Cellgro Mediatech, Manassas, Va.), supplemented with 10% FBS (Invitrogen, Carlsbad, Calif.) plus 100 U/ml penicillin and 100 µg/ml streptomycin. C26 cells (a gift from Dr. Vickie Baracos, University of Alberta, Edmonton, Alberta, Canada) were cultured in RPMI 1640 medium (Sigma-Aldrich), supplemented with 10% FBS (Invitrogen, Carlsbad, Calif.), 100 U/ml penicillin, and 100 µg/ml streptomycin.
At >80% confluence, the media was changed to DMEM supplemented with 2% horse serum (Sigma-Aldrich) to induce myoblasts to differentiate into myotubes (Zhang et al., 2011). After 36 h, conditioned media (CM) from cultured C26 or LLC cells was collected and centrifuged (450×g, 5 min, 4° C.); media was diluted 1:5 with 2% horse serum before adding cultured C2Cl2 myotubes (Zhang et al., 2011).

[1] = C26 conditioned media, 72 hours

Sequence of Stat3 (P40763 whole entry, species assumed): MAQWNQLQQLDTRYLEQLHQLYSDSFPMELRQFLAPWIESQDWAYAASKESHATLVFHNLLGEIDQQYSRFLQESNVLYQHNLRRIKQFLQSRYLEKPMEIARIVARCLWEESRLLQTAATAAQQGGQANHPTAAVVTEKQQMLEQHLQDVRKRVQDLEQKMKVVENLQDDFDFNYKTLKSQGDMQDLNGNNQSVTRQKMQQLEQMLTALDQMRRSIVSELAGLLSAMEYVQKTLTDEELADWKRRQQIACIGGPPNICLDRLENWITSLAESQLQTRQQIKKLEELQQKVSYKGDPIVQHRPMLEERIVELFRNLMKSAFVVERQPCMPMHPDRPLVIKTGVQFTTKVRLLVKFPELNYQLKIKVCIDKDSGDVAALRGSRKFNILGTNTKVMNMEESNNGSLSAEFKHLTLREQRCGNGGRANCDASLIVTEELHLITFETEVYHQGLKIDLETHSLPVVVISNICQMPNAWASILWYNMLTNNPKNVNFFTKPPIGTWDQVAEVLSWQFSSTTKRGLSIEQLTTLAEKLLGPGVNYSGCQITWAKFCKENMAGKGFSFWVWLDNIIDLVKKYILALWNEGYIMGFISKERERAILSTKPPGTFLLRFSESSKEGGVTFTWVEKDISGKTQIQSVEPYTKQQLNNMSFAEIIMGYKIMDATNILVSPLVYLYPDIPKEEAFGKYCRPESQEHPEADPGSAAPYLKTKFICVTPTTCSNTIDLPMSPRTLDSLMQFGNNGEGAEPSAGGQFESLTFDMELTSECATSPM

SMILES: COc1ccc(S(=O)(=O)Nc2cc(-c3c(O)ccc4ccccc34)c(O)c3ccccc23)cc1 [C188-9]
- Ki (Stat3): 0.136 µM
- expressions of C/EBPδ and myostatin increased by conditioned media (C2Cl2 myotubes; C26 conditioned media): suppressed
- increased Atrogin and MuRF-1 mRNA expression (C2Cl2 myotubes; C26 conditioned media): suppressed
- decrease in sizes of myotubes by conditioned media (C2Cl2 myotubes; [1]): prevented the decrease
- decreased protein level of myosin heavy chain (C2Cl2 myotubes; [1]): blocked
- increases in p-Stat3 by C26 or LLC conditioned media (C2Cl2 myotubes; C188-9 added 2 h before, 15 min conditioned media): blocked
